Where no end group is shown, it is not given here.
Key:
[1] = tested on: human rhabdosarcoma cells; test: p53 quantification, same procedure, rhabdosarcoma cells; format: cell-based; design: P53: unit not given here; details: for P53: Table 9, in association with SiRNA Integrin alpha 3+RGDSPC+SiRNA Integrin beta 1+SiRNA Syndecan 1 (SEQ ID NO: 31, 32, 164 to 187)
Method: (§1) The following starting materials and reagents were used: • Type-I collagen sponge was obtained from Sigma®. • PBS 1× was obtained from Gibco®. • MilliQ water: is water characterised in terms of resistivity (typically 18.2 MΩ·cm at 25° C.). • Low glucose Dulbecco's Modified Eagle Medium (DMEM) was obtained from Invitrogen® • Minimum Essential Medium Eagle without ascorbic acid (αMEM) was obtained from Invitrogen®. • All of the cell culture experiments were carried out without any serum in the medium for the first 8 hours of culture. • Osteosarcoma cells: MG63 cells were obtained from ATCC®. These cells were cultured in DMEM (Eagle's Minimum Essential Medium) medium supplemented with 10% fetal calf serum (FCS) and 1% penicillin/streptomycin. All cells were used at a low passage number (passage 10), were subconfluently cultured and were seeded at 10^4 cells/cm^2 for the purpose of the experiments. • Chondrosarcoma cells Hs819.T cells were obtained from ATCC®. These cells were cultured in DMEM (Eagle's Minimum Essential Medium) medium supplemented with 10% fetal calf serum (FCS) and 1% penicillin/streptomycin. All cells were used at a low passage number (passage 10), were subconfluently cultured and were seeded at 10^4 cells/cm^2 for the purpose of the experiments. • Rhabdomyosarcoma cells: A-673 cells were obtained from ATCC®. These cells were cultured in DMEM (Eagle's Minimum Essential Medium) medium supplemented with 10% fetal calf serum (FCS) and 1% penicillin/streptomycin. All cells were used at a low passage number (passage 10), were subconfluently cultured and were seeded at 10^4 cells/cm^2 for the purpose of the experiments. • Adenocarcinoma cells: HCC4006 cells were obtained from ATCC®. These cells were cultured in RPMI-1640 medium (obtained from ATCC®) supplemented with 10% fetal calf serum (FCS) and 1% penicillin/streptomycin. All cells were used at a low passage number (passage 10), were subconfluently cultured and were seeded at 10^4 cells/cm^2 for the purpose of the experiments. • CMFDA is a Cell Tracker Green obtained from Invitrogen®. • DAPI was obtained from Sigma®. • Fetal bovine serum (FBS) was obtained from Gibco®. • Penicillin/streptomycin was obtained from Invitrogen®. • The AlamarBlue® assay was obtained from Molecular Probes®. • Anti phospho-p53 antibody was obtained from Santa Cruz Biotechnology®, • Anti pRB antibody was obtained from Santa Cruz Biotechnology®, • Monoclonal anti-integrin (extracellular domain) αv, α5, α3, α4, β1, β3, β5 and β9 antibodies were obtained from Santa Cruz Biotechnology®, • Cell cytoskeletal filamentous actin (F-actin) was visualized by Alexa Fluor® 488 phalloidin Sigma® labeling. • Monoclonal anti-vinculin antibody (clone hVIN-1, produced in mouse) was obtained from Sigma®.
(§2) • All of the peptides were synthetized using conventional solution and/or solid phase peptide synthesis methods. • All of the experiments were performed with a concentration of 400 ng/mL of GFR-binding compound(s) as defined herein. • All cell culture experiments were performed with cultures on plastic coated with type-I collagen in order to mimic the physiological conditions of the human body. • The compositions of pharmaceutical compositions used in the examples below are summarized in the following table:
(§3) The cells were first fixed for 20 min with 4% paraformaldehyde/PBS at 4° C. After fixation, the cells were permeabilized in PBS containing 1% Triton X-100 for 15 min. Protein immunofluorescent visualization was performed by first treating the cells with 1% (v/v) specific monoclonal antibodies for 1 hour at 37° C. Then the samples were incubated with Alexa Fluor® 568 or 647 (F(ab′)2 fragment of IgG(H+L)) during 30 min at room temperature. The cell nuclei were counterstained in 20 ng/mL DAPI for 10 min at room temperature.
(§4) For this type of quantification the freeware image analysis ImageJ® software was used. […]

[2] = tested on: human rhabdosarcoma cells; test: pRB quantification, same procedure, rhabdosarcoma cells; format: cell-based; details: for pRB: Table 9, in association with SiRNA Integrin alpha 3+RGDSPC+SiRNA Integrin beta 1+SiRNA Syndecan 1 (SEQ ID NO: 31, 32, 164 to 187)
Method: as §1, §2, §3, §4

[3] = Table 8, in association with SiRNA Integrin alpha 3, v, 4 and SiRNA Integrin beta 1
[4] = Table 5, cyclic GFR-binding peptide in association with SiRNA Integrin alpha 3+RGDSPC+SiRNA Integrin beta 1+SiRNA Syndecan 1, 400 ng/mL

| Sequence | P53 [1] | pRB [2] | also measured |
| --- | --- | --- | --- |
| APTGGSATSMLYYDKGVVTYLRKHRGGVVK (Non-cyclic GFR-binding peptide) [SEQ ID NO: 127] |  |  | P53 (%) [1, 3]: 33%; pRB (%) [2, 3]: 16% |
| APTLLNAISMLYFNDKQQIILKKYRLLVVR (Non-cyclic GFR-binding peptide) [SEQ ID NO: 126] |  |  | P53 (%) [1, 3]: 41%; pRB (%) [2, 3]: 8% |
| APVAAKPLSMLYVDKGVVTYDHHKDAAVEE (Non-cyclic GFR-binding peptide) [SEQ ID NO: 132] |  |  | P53 (%) [1, 3]: 38%; pRB (%) [2, 3]: 9% |
| APVKMEPLPTVYYDDMGVPTEQLSNDMVEESGSLDDMGVPT (also: cyclic, ring not given here) [SEQ ID NO: 38225] |  |  | P53 (%) [1, 4]: 49%; pRB (%) [2, 4]: 9% |
| CAAAPASSSVPARLSPISILYIAAAYKQYEDM (Non-cyclic GFR-binding peptide) [SEQ ID NO: 185] | 47 | 8 |  |
| CAAPASSSVPARLSPISILYIDAANNVVYKQYEDMVVE (Non-cyclic GFR-binding peptide) [SEQ ID NO: 182] | 41 | 8 |  |
| CAAPASSSVPARLSPISILYIDAANNVVYKQYEDMVVEASG (Non-cyclic GFR-binding peptide) [SEQ ID NO: 181] | 45 | 9 |  |
| CAAPASSSVPARLSPISLLYIDAANNVVYKQYEDM (Non-cyclic GFR-binding peptide) [SEQ ID NO: 183] | 44 | 13 |  |
| CASAAPSSVPQALEPLPIVYYVGRTPKVEQLSNMIVRSSK (Non-cyclic GFR-binding peptide) [SEQ ID NO: 175] | 45 | 7 |  |
| CGIPEPSSVPEKMSSLSILFFDENKNVVLKVYPNM (Non-cyclic GFR-binding peptide) [SEQ ID NO: 179] | 40 | 11 |  |
| CGIPEPSSVPEKTSSLSLLFFDENKNVVLKVYPNM (Non-cyclic GFR-binding peptide) [SEQ ID NO: 180] | 29 | 9 |  |
| CKIPKASSVPTELEPLPIVYYVGRKPKVEQLSNMIVRS (Non-cyclic GFR-binding peptide) [SEQ ID NO: 174] | 40 | 6 |  |
| CPARLSPISLLYIDAANNVVYKQYEDM (Non-cyclic GFR-binding peptide) [SEQ ID NO: 184] | 39 | 11 |  |
| CTVPKPSSAPTQLSPISILYIDAANNVVYKQYEDMVVRA (Non-cyclic GFR-binding peptide) [SEQ ID NO: 187] | 42 | 9 |  |
| CVPQRLSPISILYIDAANNVVYKQYE (Non-cyclic GFR-binding peptide) [SEQ ID NO: 186] | 38 | 12 |  |
| CVPTEERSVKVAKVRIKPHQGQHKEVQV (Non-cyclic GFR-binding peptide) [SEQ ID NO: 176] | 33 | 7 |  |
| CVPTEESNITMQIMRIKPHQGQHIGEMSFL (Non-cyclic GFR-binding peptide) [SEQ ID NO: 177] | 43 | 8 |  |
| EPSSSRVRLEPLTTLYYGGGGGGGEQLSNVVEEHSKDKGVVTY (also: cyclic peptide, ring closure not given here) [SEQ ID NO: 38224] |  |  | P53 (%) [1, 4]: 46%; pRB (%) [2, 4]: 8% |
| EPSSVSQAAEPLPIVYYRIKPHQGQHEQLSNMIVKSSKSSDDMGVPT (also: cyclic peptide, ring closure not given here) [SEQ ID NO: 38226] |  |  | P53 (%) [1, 4]: 29%; pRB (%) [2, 4]: 12% |
| GTPGPAPTKLSAISMLYLDSSNNVILKKYR (Non-cyclic GFR-binding peptide) [SEQ ID NO: 166] | 37 | 10 |  |

| Sequence | P53 [1] | pRB [2] | also measured |
| --- | --- | --- | --- |
| GTPGPAPTKLSAISMLYLDSSNNVILRKHR (Non-cyclic GFR-binding peptide) [SEQ ID NO: 165] | 42 | 9 |  |
| GTPGPAPTQLSPISVLYKDDSSNVILKYHY (Non-cyclic GFR-binding peptide) [SEQ ID NO: 31] | 34 | 5 |  |
| GTPGPASSAVSQELSAISMLYLGGGLKNYQDM (Non-cyclic GFR-binding peptide) [SEQ ID NO: 32] | 46 | 7 |  |
| GTPGPKASSVPTELSPISTLYKDENEKVVLKYHYDM (Non-cyclic GFR-binding peptide) [SEQ ID NO: 168] | 51 | 13 |  |
| GTPGPKASSVPTELSPISTLYKDENEKVVLKYHYDMVVEGSGSR (Non-cyclic GFR-binding peptide) [SEQ ID NO: 167] | 41 | 11 |  |
| GTPGPPKPSSAPTQLNAISMLYFGGGGGLKKYRDMQHN (Non-cyclic GFR-binding peptide) [SEQ ID NO: 169] | 37 | 8 |  |
| GTPGPPSSAPTQLSATSVLYYDDSSNVILRKHRMIVKS (Non-cyclic GFR-binding peptide) [SEQ ID NO: 164] | 47 | 10 |  |
| GTPGPRNVQCRPTQVQLSAISTLYLAAALKNYQTLE (Non-cyclic GFR-binding peptide) [SEQ ID NO: 173] | 37 | 15 |  |
| GTPGPRNVQCRPTQVQLSAISTLYLEIVRKKPLKNYQTLEDH (Non-cyclic GFR-binding peptide) [SEQ ID NO: 172] | 33 | 12 |  |
| IPKASSAPVGQRPVQMRKIDKGVVTYKKATVSSVEESGSLDKGVVTY (not fully specified; also: cyclic, mode of cyclisation not given here) [SEQ ID NO: 38218] |  |  | P53 (%) [1, 4]: 36%; pRB (%) [2, 4]: 12% |
| KASSSRVKMSNITVQIMRIKPHQGQHIGEMSVVEEHASGSHDKGVVTY (not fully specified; also: cyclic, mode of cyclisation not given here) [SEQ ID NO: 38222] |  |  | P53 (%) [1, 4]: 52%; pRB (%) [2, 4]: 15% |
| KASSVPQEERPVQMRKIGGGGGGGKKATVMIVRSSKSSDDMGVPT (not fully specified; also: cyclic, mode of cyclisation not given here) [SEQ ID NO: 38219] |  |  | P53 (%) [1, 4]: 38%; pRB (%) [2, 4]: 15% |
| PTSSAPTDLRSVKMAKVEIVRKKPIFKEVQVDMVVKASGDKGVVTY (not fully specified; also: cyclic peptide) [SEQ ID NO: 38221] |  |  | P53 (%) [1, 4]: 48%; pRB (%) [2, 4]: 11% |
| SRVAARSVKMAKVGGGGGGGKEVQVAAEEH (Non-cyclic GFR-binding peptide) [SEQ ID NO: 136] |  |  | P53 (%) [1, 3]: 38%; pRB (%) [2, 3]: 10% |
| SRVLLRPVQMRKIDKGVVTYKKATVLLEEH (Non-cyclic GFR-binding peptide) [SEQ ID NO: 139] |  |  | P53 (%) [1, 3]: 49%; pRB (%) [2, 3]: 18% |
| TPTSSSPINTLYFDDMGVPTYGKIPSSVVD (Non-cyclic GFR-binding peptide) [SEQ ID NO: 130] |  |  | P53 (%) [1, 3]: 48%; pRB (%) [2, 3]: 15% |
| TQVAARPVQTRKIDDMGVPTKKATVAAEDH (Non-cyclic GFR-binding peptide) [SEQ ID NO: 140] |  |  | P53 (%) [1, 3]: 35%; pRB (%) [2, 3]: 17% |
| VPEAASSLSMLFFEIVRKKPIFLKVYPAATVE (Non-cyclic GFR-binding peptide) [SEQ ID NO: 124] |  |  | P53 (%) [1, 3]: 37%; pRB (%) [2, 3]: 12% |
| VPQAAEPLPMLYYDKGVVTYEQLSNAAVRS (Non-cyclic GFR-binding peptide) [SEQ ID NO: 133] |  |  | P53 (%) [1, 3]: 42%; pRB (%) [2, 3]: 7% |

From patent publication US20190290729A1, “PHARMACEUTICAL ASSOCIATION OF GROWTH FACTOR RECEPTOR AGONIST AND ADHESION PROTEIN INHIBITOR FOR CONVERTING A NEOPLASTIC CELL INTO A NON-NEOPLASTIC CELL AND USES THEREOF” (HISTIDE AG, priority 2015, published 2019)
